Results taken from patent US11530213B2, “Naphthyridinone derivatives and their use in the treatment of arrhythmia” (NOVARTIS AG, priority 2016, dated 2022).

Target: GIRK1/4 (Homo sapiens (Human), UniProt P48544+P48549)
Assay: GIRK1/4 inhibition, Quattro (IonWorks) population patch clamp, inward potassium current in GIRK 1/4 HEK293 stable cells (test assay No. 1)
Format: cell-based
Details: percentage of current inhibition normalized to DMSO-only control
Description: The activity of a compound according to the present invention can be assessed by the following in vitro method. • 1. Buffers: • a. External buffer: 10 mM NaCl, 50 mM Na Gluconate, 80 mM K Gluconate, 1.8 mM CaCl2, 1 mM MgCl2, 10 mM HEPES, 10 mM Glucose, pH 7.4; osmolality […]. • b. Internal buffer: 30 mM KCl, 100 mM K Gluconate, 1 mM MgCl2, 10 mM HEPES, 1 mM EGTA, 10 mM NaCl, pH 7.2; osmolality […]. • 2. Compounds: • a. Prepare seven-fold compound dilution series (10 mM to 20 uM) in 100% DMSO, in 384-well polypropylene plates. • b. Propafenone (Sigma Aldrich, catalog number P4670) is used as a positive control and DMSO for neutral control • c. Resuspend 1 ul of compounds in DMSO into 65.7 ul external buffer in 384-well polypropylene plate and load into Plate 1 section of Molecular Devices Quattro • 3. Quattro setup: • a. Load 384-well Population Patch Plate (Molecular Devices #9000-0902) into Quattro • b. Fill Quattro F-soak trough with 20% DMSO and 50% EtOH • c. Fill Quattro buffer trough with external buffer • d. Attach internal buffer flask to Quattro internal buffer tubing • e. Attach PBS (Phosphate Buffered Saline, minus Ca^++ and Mg^++, pH7.4) bottle to F-head & E-head wash on Quattro • 4. Antibiotic: • a. Resuspend 5.6 mg amphotericin B (Sigma Aldrich, catalog number A2411) in 175 ul DMSO • b. Add the resulting solution to 50 ml internal buffer, mix and attach to antibiotic tubing port on Quattro • 5. Cells: • a. Use GIRK 1/4 HEK293 stable cells (obtained from ChanTest, 14656 Neo Parkway, Cleveland, Ohio 44128) grown to […] confluency in the following cell culture medium: DMEM containing 10% (v/v) Fetal Bovine Serum, Penicillin/Streptomycin (at “1×” concentration from a 100× stock), 0.5 mg/ml G418 and 0.1 mg/ml Zeocin. • b. Wash cells with PBS (minus Ca^++ and Mg^++), Detach cells using Detachin (Genlantis, 11011 Torreyana, San Diego, Calif. 92121), and resuspend in external buffer (5 ml final volume at 2.0-2.1×10^6 cells/ml) • c. Load into cell trough of Quattro • 6. Assay Protocol: • Quattro is controlled using IonWorks v2 software to perform the following steps: • a. Add 3.5 ul cells plus 3.5 ul external buffer to wells of Quattro Patch Plate • b. Circulate amphotericin B and internal buffer onto cells • c. Apply the following voltage protocol: Pulse 1: 15 mV for 300 milliseconds (ms), followed by Pulse 2: −120 mV for 400 ms, then Pulse 3: −15 mV for 400 ms, and finally Pulse 4: −120 mV to 40 mV over 500 ms (this is a voltage ramp). • d. Measure magnitude of inward potassium current at time point between 1200-1220 ms from start of Pulse 1 (i.e. during the voltage ramp phase). • e. Add 3.5 ul of diluted compounds (or DMSO) to wells and repeat steps c-d (final compound concentrations are 50 uM to 0.1 uM, for potent compounds 0.5 uM to 0.01 uM and each concentration is tested in quadruplicate—i.e. in 4 separate wells). • f. The difference between current magnitude pre vs. post-compound gives a measure of GIRK1/4 inhibition. • 7. Data analysis:
IC50 values are calculated by plotting the percentage of current inhibition (normalized to the DMSO-only control) as a function of compound concentration using standard data analysis software.

GIRK1/4, sequence (P48549 whole entry): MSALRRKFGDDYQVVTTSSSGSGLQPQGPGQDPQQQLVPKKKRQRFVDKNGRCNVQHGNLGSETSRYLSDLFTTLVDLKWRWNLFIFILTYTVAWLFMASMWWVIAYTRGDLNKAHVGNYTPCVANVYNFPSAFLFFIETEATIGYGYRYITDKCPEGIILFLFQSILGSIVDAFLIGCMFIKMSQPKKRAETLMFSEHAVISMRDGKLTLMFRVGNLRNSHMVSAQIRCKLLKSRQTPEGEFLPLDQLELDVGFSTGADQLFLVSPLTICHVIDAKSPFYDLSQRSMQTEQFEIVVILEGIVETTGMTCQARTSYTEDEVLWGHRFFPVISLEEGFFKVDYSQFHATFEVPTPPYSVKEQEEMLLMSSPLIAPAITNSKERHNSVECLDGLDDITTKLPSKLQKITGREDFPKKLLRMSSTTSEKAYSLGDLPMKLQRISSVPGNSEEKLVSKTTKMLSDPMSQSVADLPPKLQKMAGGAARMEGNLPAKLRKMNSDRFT
GIRK1/4, sequence (P48544 whole entry): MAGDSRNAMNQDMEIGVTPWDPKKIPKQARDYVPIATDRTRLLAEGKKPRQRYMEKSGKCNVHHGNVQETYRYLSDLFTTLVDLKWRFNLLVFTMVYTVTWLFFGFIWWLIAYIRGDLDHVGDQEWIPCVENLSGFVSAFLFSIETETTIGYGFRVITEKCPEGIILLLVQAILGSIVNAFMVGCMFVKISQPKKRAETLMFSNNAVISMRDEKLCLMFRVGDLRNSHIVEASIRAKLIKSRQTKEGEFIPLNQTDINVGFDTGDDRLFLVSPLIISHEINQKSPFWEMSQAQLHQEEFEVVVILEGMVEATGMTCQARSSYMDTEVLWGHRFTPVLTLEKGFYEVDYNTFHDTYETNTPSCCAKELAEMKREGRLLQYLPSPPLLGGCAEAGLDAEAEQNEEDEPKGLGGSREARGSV

IC50 [µM] | SMILES
0.009 | Cc1cc(=O)c2c(OCCO)ncc(Cl)c2n1-c1c(Cl)cccc1Cl [Example 48, 8-chloro-1-(2,6-dichlorophenyl)-5-(2-hydroxyethoxy)-2-methyl-1,6-naphthyridin-4(1H)-one]
0.131 | O=c1cc(CO)n(-c2c(Cl)cccc2Cl)c2c(Cl)cnc(OCC(O)CO)c12 (centres unmarked) [Example 3, 8-chloro-1-(2,6-dichlorophenyl)-5-(2,3-dihydroxypropoxy)-2-(hydroxymethyl)-1,6-naphthyridin-4(1H)-one]
0.008 | Cc1cc(=O)c2c(OCC(O)CO)ncc(Cl)c2n1-c1c(Cl)cccc1Cl (centres unmarked) [Example 38, 8-chloro-1-(2,6-dichlorophenyl)-5-(2,3-dihydroxypropoxy)-2-methyl-1,6-naphthyridin-4(1H)-one]
0.013 | O=c1cc(C(F)F)n(-c2c(Cl)cccc2Cl)c2c(Cl)cnc(OCC(O)CO)c12 (centres unmarked) [Example 62, 8-Chloro-1-(2,6-dichlorophenyl)-2-(difluoromethyl)-5-(2,3-dihydroxypropoxy)-1,6-naphthyridin-4(1H)-one]
0.234 | COc1cc2c(c(OCC(O)CO)n1)c(=O)cc(C)n2-c1c(Cl)cccc1Cl (centres unmarked) [Example 68, 1-(2,6-Dichlorophenyl)-5-(2,3-dihydroxpropoxy)-7-methoxy-2-methyl-1,6-naphthyridin-4(1H)-one]
0.28 | Cc1cc(=O)c2c(-c3cc[nH]n3)cncc2n1-c1c(Cl)cc(C#N)cc1Cl [Example 72, 3,5-dichloro-4-(2-methyl-4-oxo-5-(1H-pyrazol-3-yl)-1,7-naphthyridin-1(4H)-yl)benzonitrile]
0.068 | O=c1cc(CO)n(-c2c(Cl)cc(F)cc2Cl)c2c(Cl)cnc(OCCO)c12 [Example 61, 8-Chloro-1-(2,6-dichloro-4-fluorophenyl)-5-(2-hydroxyethoxy)-2-(hydroxymethyl)-1,6-naphthyridin-4(1H)-one]
0.159 | O=c1cc(CO)n(-c2c(Cl)cccc2Cl)c2c(Cl)cnc(OC[C@H](O)CO)c12 [Example 2, (R)-8-chloro-1-(2,6-dichlorophenyl)-5-(2,3-dihydroxypropoxy)-2-(hydroxymethyl)-1,6-naphthyridin-4(1H)-one]
0.146 | Cc1cc(=O)c2c(N3CCN(CCO)CC3)ncc(Cl)c2n1-c1c(Cl)cc(C#N)cc1Cl [Example 25, 3,5-dichloro-4-(8-chloro-5-(4-(2-hydroxyethyl)piperazin-1-yl)-2-methyl-4-oxo-1,6-naphthyridin-1(4H)-yl)benzonitrile]
0.116 | O=c1cc(CO)n(-c2c(Cl)cccc2Cl)c2c(Cl)cnc(C(O)CO)c12 (single isomer, unassigned) [Example 84, 8-Chloro-1-(2,6-dichlorophenyl)-5-(1,2-dihydroxyethyl)-2-(hydroxymethyl)-1,6-naphthyridin-4(1H)-one]
0.025 | Cc1cc(=O)c2c(OCCOCCOCCOCCO)ncc(Cl)c2n1-c1c(Cl)cccc1Cl [Example 30, 8-chloro-1-(2,6-dichlorophenyl)-5-(2-(2-(2-(2-hydroxyethoxy)ethoxy)ethoxy)ethoxy)-2-methyl-1,6-naphthyridin-4(1H)-one]
0.147 | O=c1cc(CO)n(-c2c(Cl)cccc2Cl)c2c(Cl)cnc(C(O)CO)c12 (centres unmarked) [Example 82, 8-Chloro-1-(2,6-dichlorophenyl)-5-(1,2-dihydroxyethyl)-2-(hydroxymethyl)-1,6-naphthyridin-4(1H)-one]
0.214 | O=c1cc(CO)n(-c2c(Cl)cccc2Cl)c2c(Cl)cnc(CCC(O)CO)c12 (centres unmarked) [Example 75, 8-Chloro-1-(2,6-dichlorophenyl)-5-(3,4-dihydroxybutyl)-2-(hydroxymethyl)-1,6-naphthyridin-4(1H)-one]
0.154 | Cc1cc(=O)c2c(OCCOCCOCCOCCO)ncc(Cl)c2n1-c1c(Cl)cccc1C#N [Example 21, 3-chloro-2-(8-chloro-5-(2-(2-(2-(2-hydroxyethoxy)ethoxy)ethoxy)ethoxy)-2-methyl-4-oxo-1,6-naphthyridin-1(4H)-yl)benzonitrile]
0.104 | O=c1cc(CO)n(-c2c(Cl)cccc2Cl)c2c(Cl)cnc(OC[C@@H](O)CO)c12 [Example 1, (S)-8-Chloro-1-(2,6-dichlorophenyl)-5-(2,3-dihydroxpropoxy)-2-(hydroxymethyl)-1,6-naphthyridin-4(1H)-one]
0.029 | COCc1cc(=O)c2c(OCC(O)CO)ncc(Cl)c2n1-c1c(Cl)cccc1Cl (centres unmarked) [Example 54, 8-chloro-1-(2,6-dichlorophenyl)-5-(2,3-dihydroxypropoxy)-2-(methoxymethyl)-1,6-naphthyridin-4(1H)-one]
0.176 | Cc1cc(=O)c2c(NCCOCCOCCOCCO)ncc(Cl)c2n1-c1c(Cl)cccc1C#N [Example 16, 3-chloro-2-(8-chloro-5-((2-(2-(2-(2-hydroxyethoxy)ethoxy)ethoxy)ethyl)amino)-2-methyl-4-oxo-1,6-naphthyridin-1(4H)-yl)benzonitrile]
0.028 | COCc1cc(=O)c2c(OCC(CO)CO)ncc(Cl)c2n1-c1c(Cl)cccc1Cl [Example 53, 8-chloro-1-(2,6-dichlorophenyl)-5-(3-hydroxy-2-(hydroxymethyl)propoxy)-2-(methoxymethyl)-1,6-naphthyridin-4(1H)-one]
0.037 | Cc1cc(=O)c2c(C(=O)CO)ncc(Cl)c2n1-c1c(Cl)cccc1Cl [Example 86, 8-Chloro-1-(2,6-dichlorophenyl)-5-(2-hydroxyacetyl)-2-methyl-1,6-naphthyridin-4(1H)-one]
0.059 | Cc1cc(=O)c2c(Nc3nnn(C)n3)ncc(Cl)c2n1-c1c(Cl)cccc1Cl [Example 47, 8-chloro-1-(2,6-dichlorophenyl)-2-methyl-5-((2-methyl-2H-tetrazol-5-yl)amino)-1,6-naphthyridin-4(1H)-one]
0.173 | Cc1cc(=O)c2c(OCC(O)COCC(O)CO)ncc(Cl)c2n1-c1c(Cl)cccc1Cl (centres unmarked) [Example 20, 8-chloro-1-(2,6-dichlorophenyl)-5-(3-(2,3-dihydroxypropoxy)-2-hydroxypropoxy)-2-methyl-1,6-naphthyridin-4(1H)-one]
0.15 | Cc1cc(=O)c2c(NCCO)cncc2n1-c1c(Cl)cc(C#N)cc1Cl [Example 27, 3,5-dichloro-4-(5-((2-hydroxyethyl)amino)-2-methyl-4-oxo-1,7-naphthyridin-1(4H)-yl)benzonitrile]
0.098 | Cc1cc(=O)c2c(OCCOCCOCCOCCOCCOCCO)ncc(Cl)c2n1-c1c(Cl)cccc1Cl [Example 19, 8-chloro-1-(2,6-dichlorophenyl)-5-((17-hydroxy-3,6,9,12,15-pentaoxaheptadecyl)oxy)-2-methyl-1,6-naphthyridin-4(1H)-one]
0.052 | Cc1cc(=O)c2c(OCCOCCOCCOCCOCCO)ncc(Cl)c2n1-c1c(Cl)cccc1Cl [Example 14, 8-chloro-1-(2,6-dichlorophenyl)-5-((14-hydroxy-3,6,9,12-tetraoxatetradecyl)oxy)-2-methyl-1,6-naphthyridin-4(1H)-one]

SMILES | IC50 [µM]
Cc1cc(=O)c2c(OCC(O)C(C)(C)O)ncc(Cl)c2n1-c1c(Cl)cccc1Cl (single isomer, unassigned) [Example 59, 8-chloro-1-(2,6-dichlorophenyl)-5-(2,3-dihydroxy-3-methylbutoxy)-2-methyl-1,6-naphthyridin-4(1H)-one] | 0.014
Cc1cc(=O)c2c(OCC(O)C(C)(C)O)ncc(Cl)c2n1-c1c(Cl)cccc1Cl (single isomer, unassigned) [Example 58, 8-chloro-1-(2,6-dichlorophenyl)-5-(2,3-dihydroxy-3-methylbutoxy)-2-methyl-1,6-naphthyridin-4(1H)-one] | 0.017
